ChEMBL document CHEMBL5500370, “Discovery of potent and novel dual NAMPT/BRD4 inhibitors for efficient treatment of hepatocellular carcinoma” (Eur J Med Chem, 2024)
Activity calls are given as the source filed them. The calls are words filed in the database; no cut-off is given here.

Columns and labels:
Hep 3B2 [1] = assay: Induction of cell cycle arrest at G2/M phase in human Hep3B cells at 5 uM measured after 72 hrs by PI/RNase staining based flow cytometry (reference value: 11.37 %); type: functional
Hep 3B2 [2] = assay: Antiproliferative activity against NMN-treated human Hep3B cells incubated for 120 hrs by MTT assay; type: functional, cell-based
Hep 3B2 [3] = assay: Induction of apoptosis in human Hep3B cells assessed as late apoptotic cells at 5 uM measured after 72 hrs by Annexin V-FITC/PI staining based flow cytometry (reference value: 1.05 %); type: functional
[4] = target: Bromodomain-containing protein 3 (Homo sapiens, UniProt Q15059); assay: Inhibition of BRD3 BD1/2 (unknown origin) incubated for 120 mins by TR-FRET assay
Sequence of Bromodomain-containing protein 3 (Q15059 whole entry): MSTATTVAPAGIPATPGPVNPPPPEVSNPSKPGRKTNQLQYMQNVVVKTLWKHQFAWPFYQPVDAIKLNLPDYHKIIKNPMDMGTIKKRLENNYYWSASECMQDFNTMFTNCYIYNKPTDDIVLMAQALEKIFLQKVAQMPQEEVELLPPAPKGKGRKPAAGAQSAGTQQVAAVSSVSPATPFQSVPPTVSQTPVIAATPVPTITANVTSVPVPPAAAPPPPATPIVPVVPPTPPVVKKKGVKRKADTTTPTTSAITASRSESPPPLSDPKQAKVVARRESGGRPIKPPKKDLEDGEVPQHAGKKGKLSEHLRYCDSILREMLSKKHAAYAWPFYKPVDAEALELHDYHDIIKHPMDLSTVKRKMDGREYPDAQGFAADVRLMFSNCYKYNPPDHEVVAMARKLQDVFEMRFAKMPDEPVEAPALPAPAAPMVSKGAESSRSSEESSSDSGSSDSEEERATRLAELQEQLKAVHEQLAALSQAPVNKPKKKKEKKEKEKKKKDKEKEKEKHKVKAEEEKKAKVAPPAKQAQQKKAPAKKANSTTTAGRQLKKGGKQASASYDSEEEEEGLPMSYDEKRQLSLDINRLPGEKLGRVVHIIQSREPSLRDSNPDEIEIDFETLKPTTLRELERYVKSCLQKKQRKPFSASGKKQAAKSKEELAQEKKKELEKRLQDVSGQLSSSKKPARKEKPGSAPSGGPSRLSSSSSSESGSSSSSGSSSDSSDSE

[5] = target: T1, Bromodomain-containing protein 4 (Homo sapiens, UniProt O60885); assay: Inhibition of BRD4 in human Hep3B cells assessed as decrease in YAP1 level at 1 to 10 uM measured after 72 hrs by immunoblot analysis; type: cell-based; details: dose 1-10 µM
Hep 3B2 [6] = assay: Induction of apoptosis in human Hep3B cells assessed as early apoptotic cells at 10 uM measured after 72 hrs by Annexin V-FITC/PI staining based flow cytometry (reference value: 2.13 %); type: functional
Huh-7 = assay: cells; details: Homo sapiens, Huh-7, 120 h
HCCLM3 [7] = assay: Antiproliferative activity against NAMN-treated human HCCLM3 cells incubated for 120 hrs by MTT assay; type: functional, cell-based
[8] = target: T1, Bromodomain-containing protein 4; assay: Inhibition of BRD4 BD2 (unknown origin) incubated for 120 mins by TR-FRET assay
[9] = target: T1, Bromodomain-containing protein 4; assay: Inhibition of BRD4 BD1/2 (unknown origin) incubated for 120 mins by TR-FRET assay
Hep 3B2 [10] = assay: Induction of cell cycle arrest at S phase in human Hep3B cells at 1 uM measured after 72 hrs by PI/RNase staining based flow cytometry (reference value: 31.90 %); type: functional
Hep 3B2 [11] = assay: Antiproliferative activity against NAMN-treated human Hep3B cells incubated for 120 hrs by MTT assay; type: functional, cell-based
Hep 3B2 [12] = assay: Induction of apoptosis in human Hep3B cells assessed as late apoptotic cells at 1 uM measured after 72 hrs by Annexin V-FITC/PI staining based flow cytometry (reference value: 1.05 %); type: functional
HCCLM3 [13] = assay: Antitumor activity against human HCCLM3 cells xenografted in BALB/c nude mouse assessed as tumor growth suppression administered intraperitoneally for 27 days; type: functional; details: dose 40-80 mg/kg, route ip, time 27.0 day
Hep 3B2 [14] = assay: Induction of cell cycle arrest at G0/G1 phase in human Hep3B cells at 10 uM measured after 72 hrs by PI/RNase staining based flow cytometry (reference value: 56.73 %); type: functional
HCCLM3 [15] = assay: Antitumor activity against human HCCLM3 cells xenografted in BALB/c nude mouse at 40 mg/kg, ip for 27 days relative to control; type: functional; details: HCCLM3, 648 h, time 27 day, read-out: TGI
Hep 3B2 [16] = assay: Induction of cell cycle arrest at S phase in human Hep3B cells at 5 uM measured after 72 hrs by PI/RNase staining based flow cytometry (reference value: 31.90 %); type: functional
Hep 3B2 [17] = assay: Induction of cell cycle arrest at G0/G1 phase in human Hep3B cells at 1 uM measured after 72 hrs by PI/RNase staining based flow cytometry (reference value: 56.73 %); type: functional
Hep 3B2 [18] = assay: Downregulation of NAMPT level in human Hep3B cells at 1 to 10 uM measured after 72 hrs by immunoblot analysis; type: functional, cell-based; details: dose 1-10 µM
HCCLM3 [19] = assay: In vivo inhibition of NAMPT in human HCCLM3 cells xenografted in BALB/c nude mouse assessed as reduction in NAD+ level in tumor tissue administered intraperitoneally for 27 days; type: functional, organism-based; details: dose 40-80 mg/kg, route ip, time 27.0 day
[20] = target: Bromodomain testis-specific protein (Homo sapiens, UniProt Q58F21); assay: Inhibition of BRDT BD1 (unknown origin) incubated for 120 mins by TR-FRET assay
Hep 3B2 [21] = assay: Antiproliferative activity against NMN/NAMN-treated human Hep3B cells incubated for 120 hrs by MTT assay; type: functional, cell-based
[22] = Antiproliferative activity against human LX2 cells incubated for 120 hrs by MTT assay; type: toxicity, cell-based; details: LX-2 cells
HCCLM3 [23] = assay: Antitumor activity against human HCCLM3 cells xenografted in BALB/c nude mouse at 80 mg/kg, ip for 27 days relative to control; type: functional; details: HCCLM3, 648 h, time 27 day, read-out: TGI
Hep 3B2 [24] = assay: Induction of apoptosis in human Hep3B cells assessed as viable cells at 5 uM measured after 72 hrs by Annexin V-FITC/PI staining based flow cytometry (reference value: 94.08 %); type: functional; details: read-out: Activity
Hep 3B2 [25] = assay: Induction of apoptosis in human Hep3B cells assessed as necrotic cells at 1 uM measured after 72 hrs by Annexin V-FITC/PI staining based flow cytometry (reference value: 2.74 %); type: functional
Hep 3B2 [26] = assay: Antimigratory activity in human Hep3B cells measured upto 24 hrs by wound healing assay; type: functional, cell-based; details: dose 1-10 µM
[27] = target: T1, Bromodomain-containing protein 4; assay: Inhibition of BRD4 (unknown origin) incubated for 120 mins by TR-FRET assay
Hep 3B2 [28] = assay: Induction of cell cycle arrest at S phase in human Hep3B cells at 10 uM measured after 72 hrs by PI/RNase staining based flow cytometry (reference value: 31.90 %); type: functional
[29] = target: T2, Nicotinamide phosphoribosyltransferase (Homo sapiens, UniProt P43490); assay: Inhibition of NAMPT in human Hep3B cells assessed as decrease in NAD+ level at 10 uM measured after 72 hrs by WST-8 assay; type: cell-based
T2 sequence (P43490 whole entry, looked up): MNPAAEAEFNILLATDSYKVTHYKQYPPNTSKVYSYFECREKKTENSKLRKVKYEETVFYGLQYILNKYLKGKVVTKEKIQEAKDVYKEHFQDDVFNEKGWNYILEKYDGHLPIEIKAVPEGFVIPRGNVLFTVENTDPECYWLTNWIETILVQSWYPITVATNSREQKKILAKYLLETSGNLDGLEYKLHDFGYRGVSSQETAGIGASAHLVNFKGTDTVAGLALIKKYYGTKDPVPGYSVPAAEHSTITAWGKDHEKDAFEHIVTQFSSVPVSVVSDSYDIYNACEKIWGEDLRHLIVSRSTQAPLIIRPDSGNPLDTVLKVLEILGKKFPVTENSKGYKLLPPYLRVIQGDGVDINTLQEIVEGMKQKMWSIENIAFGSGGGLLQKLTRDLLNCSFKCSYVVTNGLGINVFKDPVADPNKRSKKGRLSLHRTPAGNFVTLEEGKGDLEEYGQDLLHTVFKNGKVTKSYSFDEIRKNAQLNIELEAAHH

HCCLM3 [30] = assay: cells; details: Homo sapiens, HCCLM3, 120 h
Hep 3B2 [31] = assay: Induction of apoptosis in human Hep3B cells assessed as late apoptotic cells at 10 uM measured after 72 hrs by Annexin V-FITC/PI staining based flow cytometry (reference value: 1.05 %); type: functional
Hep 3B2 [32] = assay: Induction of apoptosis in human Hep3B cells assessed as viable cells at 1 uM measured after 72 hrs by Annexin V-FITC/PI staining based flow cytometry (reference value: 94.08 %); type: functional; details: read-out: Activity
[33] = target: T2, Nicotinamide phosphoribosyltransferase; assay: Inhibition of NAMPT in human HCCLM3 cells assessed as decrease in NAD+ level at 10 uM measured after 72 hrs by WST-8 assay; type: cell-based
Hep 3B2 [34] = assay: cells; details: Homo sapiens, Hep3B, 120 h
[35] = Toxicity in BALB/c nude mouse xenografted with human HCCLM3 cells assessed as body weight loss at 40 to 80 mg/kg, ip for 27 days; type: organism-based; details: in vivo, 648 h, dose 40-80 mg/kg, time 27 day
Hep 3B2 [36] = assay: Induction of apoptosis in human Hep3B cells assessed as viable cells at 10 uM measured after 72 hrs by Annexin V-FITC/PI staining based flow cytometry (reference value: 94.08 %); type: functional; details: Homo sapiens, Hep3B, read-out: Activity
HCCLM3 [37] = assay: Antiproliferative activity against NMN-treated human HCCLM3 cells incubated for 120 hrs by MTT assay; type: functional, cell-based
Hep 3B2 [38] = assay: Induction of apoptosis in human Hep3B cells assessed as necrotic cells at 5 uM measured after 72 hrs by Annexin V-FITC/PI staining based flow cytometry (reference value: 2.74 %); type: functional

SMILES: Cc1sc2c(c1C)C(c1ccc(Cl)cc1)=N[C@@H](CC(=O)NCCCNC(=O)/C=C/c1cccnc1)c1nnc(C)n1-2
- Activity (Hep 3B2 [1]): 8.35%
- Activity (Hep 3B2 [2]): inactive
- Activity (Hep 3B2 [3]): 6.24%
- IC50 [4]: 122 nM
- inhibition [5]: Active
- Activity (Hep 3B2 [6]): 18.89%
- IC50 (Huh-7): 6490 nM
- Activity (HCCLM3 [7]): inactive
- IC50 [8]: 41 nM
- IC50 [9]: 58 nM
- Activity (Hep 3B2 [10]): 24.18%
- Activity (Hep 3B2 [11]): inactive
- Activity (Hep 3B2 [12]): 4.58%
- Activity (HCCLM3 [13]): Dose-Dependent Effect
- Activity (Hep 3B2 [14]): 76.25%
- inhibition in vivo at 40 mg/kg (HCCLM3 [15]): 37.2%
- Activity (Hep 3B2 [16]): 20.57%
- Activity (Hep 3B2 [17]): 66.06%
- Activity (Hep 3B2 [18]): Active
- Activity (HCCLM3 [19]): Active
- IC50 [20]: 354 nM
- Activity (Hep 3B2 [21]): inactive
- IC50 at 120 h [22]: 9510 nM
- inhibition in vivo at 80 mg/kg (HCCLM3 [23]): 58.2%
- viability at 5 µM (Hep 3B2 [24]): 74.7%
- Activity (Hep 3B2 [25]): 2.69%
- Activity (Hep 3B2 [26]): Dose-Dependent Effect
- IC50 [27]: 58 nM
- Activity (Hep 3B2 [28]): 18.21%
- inhibition [29]: Active
- IC50 (HCCLM3 [30]): 5440 nM
- Activity (Hep 3B2 [31]): 6.56%
- viability at 1 µM (Hep 3B2 [32]): 83.9%
- inhibition [33]: Active
- IC50 (Hep 3B2 [34]): 2370 nM
- Activity [35]: Non-Toxic
- viability at 10 µM (Hep 3B2 [36]): 72.1%
- Activity (HCCLM3 [37]): inactive
- Activity (Hep 3B2 [38]): 4.6%
